# Data reported in patent US20080009418A1, “Selective Inhibitors” (Alchemia LTD., priority 2004, published 2008).
# Assays:
# Details in all cases: compound at 10 μM
# Human δ-opioid (DOP) = target: T1, Human δ-opioid (DOP) (Homo sapiens, UniProt P41143); test: Radioligand binding, human δ-opioid (DOP) membranes, FlashPlate, [3H]-Bremazocine
# T1 construct: purchased Perkin Elmer Biosignal
# Procedure, shortened: (§1)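 Cloned human receptor membranes were coated onto FlashPlate wells and incubated with radioligand and compound (added from a 0.5 mM DMSO daughter plate) for 1 hour at room temperature in the dark. Scintillation counting gave percent inhibition, with DMSO defining total and reference ligand defining non-specific binding.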
# Human κ-Opioid (KOP) = target: T2, Human κ-Opioid (KOP) (Homo sapiens, UniProt P41145); test: Radioligand binding, human κ-opioid (KOP) membranes, filtration, [3H]-Diprenorphine
# T2 construct: purchased Perkin Elmer Biosignal
# Procedure, shortened: (§2)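 Percent inhibition of radioligand binding measured on recombinant human membranes: NK1 with [125I]-Substance P, KOP with [3H]-Diprenorphine. Incubation 1 h at room temperature, then harvest onto 0.3% PEI-soaked filters, cold Tris-HCl pH 7.4 washes and scintillation counting; non-specific binding from reference ligand wells.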
# Human Melanocortin (MC3) = target: T3, Human Melanocortin (MC3) (Homo sapiens, UniProt P41968); test: Radioligand binding, human melanocortin MC3 membranes, FlashPlate, [125I]-NDP-αMSH
# T3 construct: purchased Perkin Elmer Biosignal
# Procedure, shortened: as §1
# Human Melanocortin (MC4) = target: T4, Human Melanocortin (MC4) (Homo sapiens, UniProt P32245); test: Radioligand binding, human melanocortin MC4 membranes, FlashPlate, [125I]-NDP-αMSH
# T4 construct: purchased Perkin Elmer Biosignal
# Procedure, shortened: as §1
# Human melanocortin (MC5) = target: T5, Human melanocortin (MC5) (Homo sapiens, UniProt P33032); test: Radioligand binding, human melanocortin MC5 membranes, FlashPlate, [125I]-NDP-αMSH
# T5 construct: purchased Perkin Elmer Biosignal
# Procedure, shortened: as §1
# [1] = target: T6, Human melanin-concentrating hormone (MCH1) (Homo sapiens, UniProt Q99705); test: Radioligand binding, human melanin-concentrating hormone MCH1 membranes, FlashPlate, [125I]-S36057
# T6 construct: purchased Perkin Elmer Biosignal
# Procedure, shortened: as §1
# Human μ-opioid (MOP) = target: T7, Human μ-opioid (MOP) (Homo sapiens, UniProt P35372); test: Radioligand binding, human μ-opioid (MOP) membranes, FlashPlate, [3H]-Naloxone
# T7 construct: purchased Perkin Elmer Biosignal
# Procedure, shortened: as §1
# Human neurokinin (NK1) = target: T8, Human neurokinin (NK1) (Homo sapiens, UniProt P25103); test: Radioligand binding, human neurokinin NK1 membranes, filtration, [125I]-Substance P
# T8 construct: purchased Perkin Elmer Biosignal
# Procedure, shortened: as §2
# [2] = target: T9, Human neuropeptide Y (NPY-Y1) (Homo sapiens, UniProt P25929); test: Radioligand binding, human neuropeptide Y NPY-Y1 membranes, FlashPlate, [125I]-PYY
# T9 construct: purchased Perkin Elmer Biosignal
# T9 sequence (P25929 1-384): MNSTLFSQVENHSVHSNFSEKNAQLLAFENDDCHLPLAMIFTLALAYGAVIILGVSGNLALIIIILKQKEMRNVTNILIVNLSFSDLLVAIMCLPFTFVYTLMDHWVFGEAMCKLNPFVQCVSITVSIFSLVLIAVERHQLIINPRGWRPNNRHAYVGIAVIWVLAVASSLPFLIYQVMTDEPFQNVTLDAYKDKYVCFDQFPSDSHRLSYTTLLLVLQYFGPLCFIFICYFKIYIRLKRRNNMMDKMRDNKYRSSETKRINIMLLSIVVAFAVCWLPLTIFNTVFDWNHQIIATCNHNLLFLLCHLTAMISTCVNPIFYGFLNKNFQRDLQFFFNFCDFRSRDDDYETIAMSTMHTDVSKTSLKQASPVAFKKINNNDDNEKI
# Procedure, shortened: as §1
# Human opioid (ORL1) = target: T10, Human opioid (ORL1) (Homo sapiens, UniProt P41146); test: Radioligand binding, human opioid ORL1 membranes, FlashPlate, [125I]-Nociceptin
# T10 construct: purchased Perkin Elmer Biosignal
# Procedure, shortened: as §1
# Mouse urotensin (mUR2) = target: T11, Mouse urotensin (mUR2) (Mus musculus, UniProt Q8VIH9); test: Radioligand binding, mouse urotensin mUR2 membranes, FlashPlate, [125I]-Urotensin II
# T11 construct: purchased Perkin Elmer Biosignal
# T11 sequence (Q8VIH9 1-385): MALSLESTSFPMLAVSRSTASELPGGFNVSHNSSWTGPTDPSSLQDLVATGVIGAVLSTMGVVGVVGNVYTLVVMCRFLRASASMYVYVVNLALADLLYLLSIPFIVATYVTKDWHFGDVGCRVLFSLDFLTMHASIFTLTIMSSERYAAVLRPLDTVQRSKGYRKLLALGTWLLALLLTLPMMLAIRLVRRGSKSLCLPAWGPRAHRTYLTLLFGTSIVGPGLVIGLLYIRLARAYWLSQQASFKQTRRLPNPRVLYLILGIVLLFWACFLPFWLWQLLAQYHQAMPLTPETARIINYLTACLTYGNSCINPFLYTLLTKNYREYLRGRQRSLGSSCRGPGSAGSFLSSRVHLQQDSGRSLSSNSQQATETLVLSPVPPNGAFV
# Procedure, shortened: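 Cloned mouse urotensin (mUR2) receptor membranes from Perkin Elmer Biosignal were immobilized in FlashPlate microplates using a proprietary coating. Each well got 19.5 μl buffer, then 0.5 μl of DMSO, reference ligand, or compound. Adding 5 μl of [125I]-Urotensin II, diluted to 5× final concentration in binding buffer, started binding. Plates were sealed with TopSeal-A and incubated 1 hour at room temperature in the dark. Wells were counted for 30 seconds each on a TopCount after a 60-second delay, and percentage inhibition was calculated.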
# T2 sequence (P41145 whole entry): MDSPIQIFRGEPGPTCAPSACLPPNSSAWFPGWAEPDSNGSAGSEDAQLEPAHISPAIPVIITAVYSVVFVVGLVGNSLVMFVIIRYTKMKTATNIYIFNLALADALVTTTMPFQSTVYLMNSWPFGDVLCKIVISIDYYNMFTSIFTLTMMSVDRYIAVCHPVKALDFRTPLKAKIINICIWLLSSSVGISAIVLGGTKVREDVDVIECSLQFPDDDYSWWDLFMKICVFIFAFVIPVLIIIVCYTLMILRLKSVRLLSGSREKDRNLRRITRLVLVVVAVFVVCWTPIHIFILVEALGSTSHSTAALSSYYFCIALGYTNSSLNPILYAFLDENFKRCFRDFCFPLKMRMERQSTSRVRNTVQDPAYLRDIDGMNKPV
# T3 sequence (P41968 whole entry): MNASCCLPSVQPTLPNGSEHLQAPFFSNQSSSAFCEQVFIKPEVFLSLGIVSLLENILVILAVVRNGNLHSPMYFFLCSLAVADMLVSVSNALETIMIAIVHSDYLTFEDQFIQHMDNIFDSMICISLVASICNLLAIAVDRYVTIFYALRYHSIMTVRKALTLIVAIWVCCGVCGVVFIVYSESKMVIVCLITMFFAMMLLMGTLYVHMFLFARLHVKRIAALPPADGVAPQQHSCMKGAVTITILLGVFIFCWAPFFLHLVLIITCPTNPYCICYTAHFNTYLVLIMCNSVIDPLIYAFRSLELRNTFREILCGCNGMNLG
# T6 sequence (Q99705 whole entry): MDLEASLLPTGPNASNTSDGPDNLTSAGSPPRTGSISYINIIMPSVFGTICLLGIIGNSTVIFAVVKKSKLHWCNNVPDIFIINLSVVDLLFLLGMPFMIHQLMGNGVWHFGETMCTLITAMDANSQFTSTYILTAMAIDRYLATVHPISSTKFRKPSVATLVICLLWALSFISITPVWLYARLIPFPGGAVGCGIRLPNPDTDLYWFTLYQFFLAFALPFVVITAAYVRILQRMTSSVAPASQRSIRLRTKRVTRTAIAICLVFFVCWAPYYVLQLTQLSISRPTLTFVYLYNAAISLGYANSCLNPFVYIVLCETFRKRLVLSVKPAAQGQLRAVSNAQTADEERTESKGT
# T1 sequence (P41143 whole entry): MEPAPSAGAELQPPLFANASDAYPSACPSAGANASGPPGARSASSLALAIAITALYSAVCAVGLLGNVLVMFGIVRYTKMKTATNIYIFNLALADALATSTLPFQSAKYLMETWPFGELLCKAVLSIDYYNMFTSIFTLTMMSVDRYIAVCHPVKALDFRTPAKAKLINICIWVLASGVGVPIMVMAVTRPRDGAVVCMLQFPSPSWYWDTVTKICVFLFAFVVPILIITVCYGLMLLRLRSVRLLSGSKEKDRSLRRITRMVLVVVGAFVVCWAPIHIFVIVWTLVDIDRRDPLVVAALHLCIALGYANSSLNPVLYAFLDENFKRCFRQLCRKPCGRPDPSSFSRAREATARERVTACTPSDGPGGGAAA
# T7 sequence (P35372 whole entry): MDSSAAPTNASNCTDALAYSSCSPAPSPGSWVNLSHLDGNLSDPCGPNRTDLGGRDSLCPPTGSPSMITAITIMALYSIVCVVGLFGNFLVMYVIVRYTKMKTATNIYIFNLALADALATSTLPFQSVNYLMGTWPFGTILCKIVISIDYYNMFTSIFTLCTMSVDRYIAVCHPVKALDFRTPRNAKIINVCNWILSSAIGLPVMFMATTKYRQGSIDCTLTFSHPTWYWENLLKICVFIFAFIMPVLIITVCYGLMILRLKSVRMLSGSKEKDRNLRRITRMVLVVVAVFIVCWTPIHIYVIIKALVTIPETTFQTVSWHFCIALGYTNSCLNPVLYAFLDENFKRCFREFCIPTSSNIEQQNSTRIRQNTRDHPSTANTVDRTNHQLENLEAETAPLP
# T4 sequence (P32245 whole entry): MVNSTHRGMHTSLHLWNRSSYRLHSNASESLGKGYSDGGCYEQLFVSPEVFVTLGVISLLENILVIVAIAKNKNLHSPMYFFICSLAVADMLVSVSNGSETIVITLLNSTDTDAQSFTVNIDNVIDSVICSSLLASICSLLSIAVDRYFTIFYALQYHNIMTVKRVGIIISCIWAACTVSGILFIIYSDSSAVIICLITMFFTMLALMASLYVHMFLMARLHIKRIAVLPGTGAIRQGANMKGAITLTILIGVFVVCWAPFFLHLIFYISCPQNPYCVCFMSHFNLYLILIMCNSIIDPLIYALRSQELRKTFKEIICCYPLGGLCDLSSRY
# T5 sequence (P33032 whole entry): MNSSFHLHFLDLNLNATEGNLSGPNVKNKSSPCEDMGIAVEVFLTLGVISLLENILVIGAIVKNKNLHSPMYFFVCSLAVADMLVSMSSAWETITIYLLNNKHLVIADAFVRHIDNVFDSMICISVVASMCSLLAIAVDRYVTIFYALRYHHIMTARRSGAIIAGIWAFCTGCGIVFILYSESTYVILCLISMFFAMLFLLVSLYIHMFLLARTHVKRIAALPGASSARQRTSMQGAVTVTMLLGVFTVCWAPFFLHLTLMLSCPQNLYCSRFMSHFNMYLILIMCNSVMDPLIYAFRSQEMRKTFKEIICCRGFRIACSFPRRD
# T8 sequence (P25103 whole entry): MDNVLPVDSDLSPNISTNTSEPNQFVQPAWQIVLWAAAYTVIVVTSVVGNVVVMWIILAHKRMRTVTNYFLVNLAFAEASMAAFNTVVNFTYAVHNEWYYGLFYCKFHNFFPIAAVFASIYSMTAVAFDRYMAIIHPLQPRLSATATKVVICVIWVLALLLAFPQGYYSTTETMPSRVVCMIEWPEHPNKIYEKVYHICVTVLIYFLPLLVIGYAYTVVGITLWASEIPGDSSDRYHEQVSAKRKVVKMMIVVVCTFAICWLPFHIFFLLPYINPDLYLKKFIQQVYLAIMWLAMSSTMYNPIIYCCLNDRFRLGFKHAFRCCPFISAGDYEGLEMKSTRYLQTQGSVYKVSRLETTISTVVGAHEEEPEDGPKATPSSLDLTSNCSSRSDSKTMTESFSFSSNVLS
# T10 sequence (P41146 whole entry): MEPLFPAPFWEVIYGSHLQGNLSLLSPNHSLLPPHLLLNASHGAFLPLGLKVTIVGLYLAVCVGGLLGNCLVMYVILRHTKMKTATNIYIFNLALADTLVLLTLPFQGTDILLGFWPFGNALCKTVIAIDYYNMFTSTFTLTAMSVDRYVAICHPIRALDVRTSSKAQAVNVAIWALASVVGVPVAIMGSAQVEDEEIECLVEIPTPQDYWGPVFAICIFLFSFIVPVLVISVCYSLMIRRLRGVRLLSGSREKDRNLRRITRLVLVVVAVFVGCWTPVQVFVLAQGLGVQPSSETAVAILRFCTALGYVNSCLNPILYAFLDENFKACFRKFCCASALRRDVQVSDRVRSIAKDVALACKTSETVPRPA
smiles,measurement,setting,value
COC[C@H]1OC(OCc2cccc(O)c2)[C@H](NC(=O)CCNC(=N)N)[C@@H](OCc2ccc(Cl)cc2)[C@@H]1O (stereo partly drawn) [compound 145],"A1 radioligand binding, percentage inhibition",Human δ-opioid (DOP); [3H]-Bremazocine,− (“−” indicates less than 50% inhibition at 10 μM)
same,"A2 radioligand binding, percentage inhibition",Human κ-Opioid (KOP); [3H]-Diprenorphine,− (“−” indicates less than 50% inhibition at 10 μM)
same,"A3 radioligand binding, percentage inhibition",Human Melanocortin (MC3); [125I]-NDP-αMSH,− (“−” indicates less than 50% inhibition at 10 μM)
same,"A4 radioligand binding, percentage inhibition",Human Melanocortin (MC4); [125I]-NDP-αMSH,− (“−” indicates less than 50% inhibition at 10 μM)
same,"A5 radioligand binding, percentage inhibition",Human melanocortin (MC5); [125I]-NDP-αMSH,− (“−” indicates less than 50% inhibition at 10 μM)
same,"A6 radioligand binding, percentage inhibition",[1]; [125I]-S36057,+ (“+” indicates greater than 50% inhibition at 10 μM)
same,"A7 radioligand binding, percentage inhibition",Human μ-opioid (MOP); [3H]-Naloxone,− (“−” indicates less than 50% inhibition at 10 μM)
same,"A8 radioligand binding, percentage inhibition",Human neurokinin (NK1); [125I]-Substance P,− (“−” indicates less than 50% inhibition at 10 μM)
same,"A9 radioligand binding, percentage inhibition",[2]; [125I]-PYY,− (“−” indicates less than 50% inhibition at 10 μM)
same,"A10 radioligand binding, percentage inhibition",Human opioid (ORL1); [125I]-Nociceptin,− (“−” indicates less than 50% inhibition at 10 μM)
same,"A11 radioligand binding, percentage inhibition",Mouse urotensin (mUR2); [125I]-Urotensin II,− (“−” indicates less than 50% inhibition at 10 μM)
COC[C@H]1OC(OCc2ccc(-c3ccccc3)cc2)[C@H](NC(=O)CCCN)[C@@H](OCc2ccc3ccccc3c2)[C@@H]1O (stereo partly drawn) [compound 5],A1 radioligand binding inhibition,Human δ-opioid (DOP); human δ-opioid (DOP) membranes,− (“−” indicates less than 50% inhibition at 10 μM)
same,A2 radioligand binding inhibition,Human κ-Opioid (KOP); human κ-opioid (KOP) membranes,− (“−” indicates less than 50% inhibition at 10 μM)
same,A3 radioligand binding inhibition,Human Melanocortin (MC3); human melanocortin MC3 membranes,− (“−” indicates less than 50% inhibition at 10 μM)
same,A4 radioligand binding inhibition,Human Melanocortin (MC4); human melanocortin MC4 membranes,− (“−” indicates less than 50% inhibition at 10 μM)
same,A5 radioligand binding inhibition,Human melanocortin (MC5); human melanocortin MC5 membranes,+ (“+” indicates greater than 50% inhibition at 10 μM)
same,A6 radioligand binding inhibition,[1]; human MCH1 membranes,− (“−” indicates less than 50% inhibition at 10 μM)
same,A7 radioligand binding inhibition,Human μ-opioid (MOP); human μ-opioid (MOP) membranes,− (“−” indicates less than 50% inhibition at 10 μM)
same,A8 radioligand binding inhibition,Human neurokinin (NK1); human neurokinin NK1 membranes,+ (“+” indicates greater than 50% inhibition at 10 μM)
same,A9 radioligand binding inhibition,[2]; human NPY-Y1 membranes,− (“−” indicates less than 50% inhibition at 10 μM)
same,A10 radioligand binding inhibition,Human opioid (ORL1); human ORL1 membranes,− (“−” indicates less than 50% inhibition at 10 μM)
same,A11 radioligand binding inhibition,Mouse urotensin (mUR2); mouse urotensin mUR2 membranes,− (“−” indicates less than 50% inhibition at 10 μM)
COCC1OC(OCc2ccccc2)C(NC(=O)CN)C(OCc2ccc3ccccc3c2)C1O (stereo not drawn) [compound 188],A1: inhibition of radioligand binding,"Human δ-opioid (DOP); [3H]-Bremazocine, FlashPlate",− (“−” indicates less than 50% inhibition at 10 μM)
same,A2: inhibition of radioligand binding,"Human κ-Opioid (KOP); [3H]-Diprenorphine, filtration",− (“−” indicates less than 50% inhibition at 10 μM)
same,A3: inhibition of radioligand binding,"Human Melanocortin (MC3); [125I]-NDP-αMSH, FlashPlate",− (“−” indicates less than 50% inhibition at 10 μM)
same,A4: inhibition of radioligand binding,"Human Melanocortin (MC4); [125I]-NDP-αMSH, FlashPlate",− (“−” indicates less than 50% inhibition at 10 μM)
same,A5: inhibition of radioligand binding,"Human melanocortin (MC5); [125I]-NDP-αMSH, FlashPlate",− (“−” indicates less than 50% inhibition at 10 μM)
same,A6: inhibition of radioligand binding,"[1]; [125I]-S36057, FlashPlate",− (“−” indicates less than 50% inhibition at 10 μM)
same,A7: inhibition of radioligand binding,"Human μ-opioid (MOP); [3H]-Naloxone, FlashPlate",− (“−” indicates less than 50% inhibition at 10 μM)
same,A8: inhibition of radioligand binding,"Human neurokinin (NK1); [125I]-Substance P, filtration",+ (“+” indicates greater than 50% inhibition at 10 μM)
same,A9: inhibition of radioligand binding,"[2]; [125I]-PYY, FlashPlate",− (“−” indicates less than 50% inhibition at 10 μM)
same,A10: inhibition of radioligand binding,"Human opioid (ORL1); [125I]-Nociceptin, FlashPlate",− (“−” indicates less than 50% inhibition at 10 μM)
same,A11: inhibition of radioligand binding,"Mouse urotensin (mUR2); [125I]-Urotensin II, FlashPlate",− (“−” indicates less than 50% inhibition at 10 μM)
